The target of one assay is α4β1 (Homo sapiens, UniProt P05556+P13612). The assay can be described thus: α4β1 integrin inhibition, IC50. Type of assay: binding. Particulars: read-out: α4β1 IC50.
In a further assay the target is T1, α4β7 (Homo sapiens, UniProt P13612+P26010).
T1 sequence (P13612 34-1032): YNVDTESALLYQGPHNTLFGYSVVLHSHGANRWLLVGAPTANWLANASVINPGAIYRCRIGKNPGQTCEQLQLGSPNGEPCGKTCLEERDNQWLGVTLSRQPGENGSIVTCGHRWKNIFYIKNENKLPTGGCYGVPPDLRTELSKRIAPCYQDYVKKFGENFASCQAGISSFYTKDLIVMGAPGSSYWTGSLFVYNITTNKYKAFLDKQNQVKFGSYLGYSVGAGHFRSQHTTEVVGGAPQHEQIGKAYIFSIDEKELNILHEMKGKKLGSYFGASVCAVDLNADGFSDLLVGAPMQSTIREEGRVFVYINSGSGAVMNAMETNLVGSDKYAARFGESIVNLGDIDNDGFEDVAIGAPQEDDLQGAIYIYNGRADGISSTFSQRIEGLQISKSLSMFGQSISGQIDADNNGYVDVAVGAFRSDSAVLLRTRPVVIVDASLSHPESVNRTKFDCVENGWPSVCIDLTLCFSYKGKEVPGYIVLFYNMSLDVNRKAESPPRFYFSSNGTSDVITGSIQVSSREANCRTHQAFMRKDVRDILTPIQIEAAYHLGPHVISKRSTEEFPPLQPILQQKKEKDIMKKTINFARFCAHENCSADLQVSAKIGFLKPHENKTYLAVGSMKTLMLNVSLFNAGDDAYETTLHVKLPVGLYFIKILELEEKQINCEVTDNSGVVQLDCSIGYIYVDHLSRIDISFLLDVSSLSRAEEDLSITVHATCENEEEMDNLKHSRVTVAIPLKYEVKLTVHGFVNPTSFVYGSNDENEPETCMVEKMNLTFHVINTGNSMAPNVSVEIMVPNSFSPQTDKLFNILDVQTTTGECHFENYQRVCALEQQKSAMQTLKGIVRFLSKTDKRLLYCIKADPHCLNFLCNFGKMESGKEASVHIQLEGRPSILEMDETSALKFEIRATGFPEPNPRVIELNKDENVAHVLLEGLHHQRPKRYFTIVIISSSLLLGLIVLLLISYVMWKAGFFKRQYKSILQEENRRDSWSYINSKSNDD
T1 sequence (P26010 20-798): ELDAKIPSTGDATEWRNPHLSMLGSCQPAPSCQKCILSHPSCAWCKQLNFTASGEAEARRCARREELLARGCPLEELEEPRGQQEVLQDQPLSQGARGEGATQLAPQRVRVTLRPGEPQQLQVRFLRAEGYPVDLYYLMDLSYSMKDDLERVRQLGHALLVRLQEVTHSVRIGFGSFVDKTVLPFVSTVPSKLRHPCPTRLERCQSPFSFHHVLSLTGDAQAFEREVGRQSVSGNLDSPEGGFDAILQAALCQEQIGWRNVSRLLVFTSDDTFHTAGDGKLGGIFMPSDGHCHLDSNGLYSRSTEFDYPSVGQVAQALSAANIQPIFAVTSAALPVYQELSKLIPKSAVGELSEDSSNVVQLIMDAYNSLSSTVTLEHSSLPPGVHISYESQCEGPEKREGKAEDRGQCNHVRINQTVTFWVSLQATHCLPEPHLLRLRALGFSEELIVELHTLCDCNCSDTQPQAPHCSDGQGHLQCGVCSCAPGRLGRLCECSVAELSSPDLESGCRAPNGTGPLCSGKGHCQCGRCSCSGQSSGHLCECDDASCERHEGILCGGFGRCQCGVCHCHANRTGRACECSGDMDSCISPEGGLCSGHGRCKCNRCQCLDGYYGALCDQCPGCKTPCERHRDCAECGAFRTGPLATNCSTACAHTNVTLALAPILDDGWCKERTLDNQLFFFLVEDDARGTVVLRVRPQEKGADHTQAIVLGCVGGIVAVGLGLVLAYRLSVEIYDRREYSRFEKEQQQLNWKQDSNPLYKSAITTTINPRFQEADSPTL
The assay can be described thus: α4β7 integrin inhibition, IC50. Format: binding.

Where only a bound is given, the exact number is not on record here.

α4β1, sequence (P05556 21-798, one chain of several): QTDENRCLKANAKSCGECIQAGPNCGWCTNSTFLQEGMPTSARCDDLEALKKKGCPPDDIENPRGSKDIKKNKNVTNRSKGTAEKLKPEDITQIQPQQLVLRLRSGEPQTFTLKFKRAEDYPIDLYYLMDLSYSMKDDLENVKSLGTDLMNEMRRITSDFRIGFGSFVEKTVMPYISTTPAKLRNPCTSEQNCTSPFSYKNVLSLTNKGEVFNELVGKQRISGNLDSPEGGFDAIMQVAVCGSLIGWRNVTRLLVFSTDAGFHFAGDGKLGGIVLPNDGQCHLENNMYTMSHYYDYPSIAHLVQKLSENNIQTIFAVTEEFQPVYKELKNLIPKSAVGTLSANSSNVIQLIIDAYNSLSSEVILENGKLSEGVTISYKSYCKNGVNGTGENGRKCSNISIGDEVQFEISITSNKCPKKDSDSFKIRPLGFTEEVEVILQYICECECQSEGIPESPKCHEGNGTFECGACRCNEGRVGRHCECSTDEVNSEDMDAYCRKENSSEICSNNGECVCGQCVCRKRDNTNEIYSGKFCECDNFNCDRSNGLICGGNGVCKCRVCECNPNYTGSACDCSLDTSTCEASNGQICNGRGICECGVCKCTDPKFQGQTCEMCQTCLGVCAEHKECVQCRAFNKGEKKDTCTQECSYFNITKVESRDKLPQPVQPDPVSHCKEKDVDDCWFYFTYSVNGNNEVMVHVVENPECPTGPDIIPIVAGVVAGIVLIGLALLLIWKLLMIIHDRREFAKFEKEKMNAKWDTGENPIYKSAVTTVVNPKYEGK

A word on the IC50: it is the concentration that gives 50% inhibition. Regarding `Cc1cccc(C)c1-c1cccc([C@H](CC(=O)O)NC(=O)Nc2c(O)ccn(C)c2=O)c1` [1-502, sodium (S)-3-(2′,6′-dimethylbiphenyl-3-yl)-3-(3-(1-methyl-4-oxido-2-oxo-1,2-dihydropyridin-3-yl)ureido)propanoate], the IC50 on α4β1 was under 0.02 µM; on α4β7 it was under 0.2 µM.
On to `Cc1cccc(C)c1-c1cc(F)cc([C@H](CC(=O)O)NC(=O)Nc2c(O)cc(C)n(C)c2=O)c1` [1-642, sodium (S)-3-(3-(1,6-dimethyl-4-oxido-2-oxo-1,2-dihydropyridin-3-yl)ureido)-3-(5-fluoro-2′,6′-dimethylbiphenyl-3-yl)propanoate], for which the IC50 on α4β1 and against α4β7 was under 0.02 µM throughout.
As to `Cc1cccc(C)c1-c1cc([C@H](CC(=O)O)NC(=O)Nc2c(O)ccn(C)c2=O)ccc1F` [1-561, sodium (S)-3-(6-fluoro-2′,6′-dimethylbiphenyl-3-yl)-3-(3-(1-methyl-4-oxido-2-oxo-1,2-dihydropyridin-3-yl)ureido)propanoate], the IC50 on α4β1 and against α4β7 was under 0.02 µM in each case.
As to `Cn1ccc(O)c(NC(=O)N[C@@H](CC(=O)O)c2cccc(-c3ccc(F)cc3F)c2)c1=O` [1-488, sodium (S)-3-(2′,4′-difluorobiphenyl-3-yl)-3-(3-(1-methyl-4-oxido-2-oxo-1,2-dihydropyridin-3-yl)ureido)propanoate], the IC50 was under 0.02 µM at α4β1 and over 0.2 µM on α4β7.
For the compound `COc1ccc([C@H](CC(=O)O)NC(=O)Nc2c(O)ccn(C)c2=O)cc1-c1c(C)cccc1C` [1-533, sodium (S)-3-(6-methoxy-2′,6′-dimethylbiphenyl-3-yl)-3-(3-(1-methyl-4-oxido-2-oxo-1,2-dihydropyridin-3-yl)ureido)propanoate], the IC50 at α4β1 was under 0.02 µM; on α4β7, under 0.2 µM.
`Cc1noc(C)c1-c1cccc([C@H](CC(=O)O)NC(=O)Nc2c(O)ccn(C)c2=O)c1` [1-560, sodium (S)-3-(3-(3,5-dimethylisoxazol-4-yl)phenyl)-3-(3-(1-methyl-4-oxido-2-oxo-1,2-dihydropyridin-3-yl)ureido)propanoate]: the results for the IC50 at α4β1 and against α4β7 were under 0.02 µM and over 0.2 µM, respectively.
Consider `COc1cc(-c2c(C)cccc2C)cc([C@H](CC(=O)O)NC(=O)Nc2c(O)ccn(C)c2=O)c1` [1-579, sodium (S)-3-(5-methoxy-2′,6′-dimethylbiphenyl-3-yl)-3-(3-(1-methyl-4-oxido-2-oxo-1,2-dihydropyridin-3-yl)ureido)propanoate], for which the IC50 on α4β1 and against α4β7 was under 0.02 µM throughout.
Consider `Cc1cccc(C)c1-c1cccc([C@H](CC(=O)O)NC(=O)Nc2c(O)cc(C)n(C)c2=O)c1` [1-550, sodium (S)-3-(3-(1,6-dimethyl-4-oxido-2-oxo-1,2-dihydropyridin-3-yl)ureido)-3-(2′,6′-dimethylbiphenyl-3-yl)propanoate], for which the figures for the IC50 on α4β1 and at α4β7 were under 0.02 µM and under 0.2 µM, respectively.
The like results for `COc1cccc(-c2cc([C@H](CC(=O)O)NC(=O)Nc3c(O)c(C)cn(C)c3=O)ccc2OC)c1` [1-527, sodium (S)-3-(3′,6-dimethoxybiphenyl-3-yl)-3-(3-(1,5-dimethyl-4-oxido-2-oxo-1,2-dihydropyridin-3-yl)ureido)propanoate] were, in that order, under 0.02 µM and over 0.2 µM.
With `Cc1cccc(C)c1-c1cccc([C@H](CC(=O)O)NC(=O)Nc2c(O)cc3n(c2=O)CCC3)c1` [1-583, sodium (S)-3-(2′,6′-dimethylbiphenyl-3-yl)-3-(3-(7-oxido-5-oxo-1,2,3,5-tetrahydroindolizin-6-yl)ureido)propanoate], the IC50 at α4β1 and at α4β7 was under 0.02 µM throughout.
As for `O=C(O)C[C@H](NC(=O)Nc1c(O)cc2n(c1=O)CCC2)c1cccc(-c2ccc(F)cc2F)c1` [1-629, sodium (S)-3-(2′,4′-difluorobiphenyl-3-yl)-3-(3-(7-oxido-5-oxo-1,2,3,5-tetrahydroindolizin-6-yl)ureido)propanoate], the IC50 was under 0.02 µM at α4β1 and over 0.2 µM on α4β7.

(Values after patent US10875875B2, “Propionic acid derivatives and methods of use thereof” (Aviara Pharmaceuticals, Inc., priority 2017, dated 2020).)
